Values joined by “and” are separate entries in the source; they are usually repeats but may differ in a detail not shown here. Equal entries are not always repeated. Where two headings read alike, the source gives them in different places.
Columns and labels:
[1] = target: T1, hM4 (Homo sapiens, UniProt P08173); assay: Competitive [3H]NMS radioligand binding, CHO-hM4 cell membranes; conditions: for Displacement ± SD of [3H]NMS binding, hM4: single ligand concentration corresponding to a Ki of 1 µM (Cheng-Prusoff); for x-Fold selectivity for hM1 vs. hM4: ratio of Ki values hM4/hM1
T1 construct: host or cells: CHO-K1, stably transfected
T1 sequence (P08173 1-479): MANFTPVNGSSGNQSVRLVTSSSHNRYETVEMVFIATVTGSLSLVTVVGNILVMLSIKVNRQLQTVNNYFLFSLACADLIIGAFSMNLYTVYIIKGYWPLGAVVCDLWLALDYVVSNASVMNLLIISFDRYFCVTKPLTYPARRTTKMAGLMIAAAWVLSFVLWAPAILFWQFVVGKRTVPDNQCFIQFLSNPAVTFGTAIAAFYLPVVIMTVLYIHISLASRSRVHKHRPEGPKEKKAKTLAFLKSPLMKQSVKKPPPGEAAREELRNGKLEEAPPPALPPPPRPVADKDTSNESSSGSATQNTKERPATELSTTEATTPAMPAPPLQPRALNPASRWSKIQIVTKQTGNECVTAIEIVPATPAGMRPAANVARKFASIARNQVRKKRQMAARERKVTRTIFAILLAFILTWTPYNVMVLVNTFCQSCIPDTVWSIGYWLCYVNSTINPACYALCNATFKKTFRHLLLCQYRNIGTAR
Experimental: (§1) We first assessed the carbamates’ affinities for human muscarinic acetylcholine receptors subtypes hM1–5 by means of a competitive radioligand binding assay displacing [N-methyl-^3H]scopolamine methyl chloride ([^3H]NMS) in cell membranes expressing the individual receptors.
(§2) Cell membranes bearing hM1-hM5 receptors were prepared as described previously. Briefly, stably transfected CHO-K1 cells were grown to at least 80% confluency in T175 flasks, washed with ice-cold DPBS, and scraped into a mixture of ice-cold of 2 mL 10 mM Tris-HCl, 1 mM EDTA-buffer, pH 7.4 and 200 µL protease inhibitor. A cell homogenate was prepared by passing the cell suspension through a G29 needle. The cell homogenates corresponding to two T175 flasks were combined and subsequently centrifuged (10 min, 1000 × g, 4 °C). Ultracentrifugation of the supernatant (1 h, 100,000 × g, 4 °C) yielded a membrane pellet, which was suspended in 250 µL 50 mM Tris-HCl buffer, pH 7.4 and stored at −80 °C.
(§3) Maximum binding was measured by using 5 µL DMSO, and nonspecific binding was measured by using 5 µL of 1 µM scopolamine in DMSO. […] The membrane-bound radioactivity was recovered by filtration through Whatman™ GF/B glass fibre filters pre-soaked in aqueous 0.1% PEI using an M-36 tygon tubed cell harvester (Brandel®, Gaithersburg, MD, USA). Membranes were washed 3 times with ice-cold washing buffer (50 mM Tris, pH 7.4) before being dried, transferred to 2 mL scintillation cocktail (UltimaGold™, high flashpoint LSC cocktail, PerkinElmer, Waltham, MA, USA) and counted in a β -counter (Hidex TDCR Liquid Scintillation Counter in CPM mode). IC50 values were calculated by a variable slope logistic regression using at least five distinct concentrations of test compounds, pipetted in triplicates.

[2] = target: T2, hM3 (Homo sapiens, UniProt P20309); assay: Competitive [3H]NMS radioligand binding, CHO-hM3 cell membranes; conditions: for Ki: read-out: Affinity: Ki ± SD, hM3; for Displacement ± SD of [3H]NMS binding, hM3: single ligand concentration corresponding to a Ki of 1 µM (Cheng-Prusoff); for x-Fold selectivity for hM1 vs. hM3: ratio of Ki values hM3/hM1
T2 construct: host or cells: CHO-K1, stably transfected
Experimental: as §1, §2, §3

[3] = target: T3, hM2 (Homo sapiens, UniProt P08172); assay: Competitive [3H]NMS radioligand binding, CHO-hM2 cell membranes; conditions: for Ki: read-out: Affinity: Ki ± SD, hM2; for Displacement ± SD of [3H]NMS binding, hM2: single ligand concentration corresponding to a Ki of 1 µM (Cheng-Prusoff); for x-Fold selectivity for hM1 vs. hM2: ratio of Ki values hM2/hM1
T3 construct: host or cells: CHO-K1, stably transfected
T3 sequence (P08172 1-466): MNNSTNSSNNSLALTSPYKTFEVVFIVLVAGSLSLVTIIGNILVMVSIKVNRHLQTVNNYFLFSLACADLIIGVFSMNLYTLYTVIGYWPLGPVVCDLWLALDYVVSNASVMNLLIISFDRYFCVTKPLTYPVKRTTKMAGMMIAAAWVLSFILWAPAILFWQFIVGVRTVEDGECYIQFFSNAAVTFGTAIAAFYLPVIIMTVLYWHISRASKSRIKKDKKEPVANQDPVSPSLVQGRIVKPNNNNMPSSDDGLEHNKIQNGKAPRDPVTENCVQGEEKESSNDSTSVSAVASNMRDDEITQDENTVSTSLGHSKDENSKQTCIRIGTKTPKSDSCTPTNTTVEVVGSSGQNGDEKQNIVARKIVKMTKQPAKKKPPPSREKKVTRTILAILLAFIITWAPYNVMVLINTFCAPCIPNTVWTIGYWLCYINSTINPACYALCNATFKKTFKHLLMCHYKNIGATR
Experimental: as §1, §2, §3

[4] = High throughput HPLC-logD (lipophilicity); conditions: pH 7.4
Experimental: Briefly, a mixture of toluene (≥98%, Sigma-Aldrich, St. Louis, MO, USA) and triphenylene (≥99.9%, Carl Roth, Karlsruhe, Germany) was used as internal standard. Each sample was dissolved in the internal standard mixture. Using gradient elution, the injection volume was set to 7 µL, the flow rate was 1.5 mL/min, and the mobile phase consisted of a mixture of methanol and 0.01 M sodium phosphate buffer pH 7.4. The HPLC-logD values were derived from the measured retention times following the previously published equation [27, 30].

[5] = target: T4, hM5 (Homo sapiens, UniProt P08912); assay: Competitive [3H]NMS radioligand binding, CHO-hM5 cell membranes; conditions: for Displacement ± SD of [3H]NMS binding, hM5: single ligand concentration corresponding to a Ki of 1 µM (Cheng-Prusoff); for x-Fold selectivity for hM1 vs. hM5: ratio of Ki values hM5/hM1
T4 construct: host or cells: CHO-K1, stably transfected
T4 sequence (P08912 1-532): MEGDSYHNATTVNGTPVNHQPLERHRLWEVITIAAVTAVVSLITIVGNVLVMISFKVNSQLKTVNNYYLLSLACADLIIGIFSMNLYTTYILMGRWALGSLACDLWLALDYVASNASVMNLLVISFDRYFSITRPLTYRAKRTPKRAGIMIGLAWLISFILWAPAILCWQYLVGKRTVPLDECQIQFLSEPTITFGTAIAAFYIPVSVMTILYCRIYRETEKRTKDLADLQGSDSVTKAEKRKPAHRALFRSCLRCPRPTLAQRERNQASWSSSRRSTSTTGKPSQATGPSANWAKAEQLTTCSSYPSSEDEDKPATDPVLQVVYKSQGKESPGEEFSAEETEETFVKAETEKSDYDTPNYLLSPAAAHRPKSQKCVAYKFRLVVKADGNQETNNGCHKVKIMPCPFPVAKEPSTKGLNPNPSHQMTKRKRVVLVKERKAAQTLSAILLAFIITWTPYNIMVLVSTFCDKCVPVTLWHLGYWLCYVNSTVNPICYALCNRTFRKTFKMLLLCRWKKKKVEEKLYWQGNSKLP
Experimental: as §1, §2, §3

[6] = target: T5, hM1 (Homo sapiens, UniProt P11229); assay: Competitive [3H]NMS radioligand binding, CHO-hM1 cell membranes; conditions: for Displacement ± SD of [3H]NMS binding, hM1: single ligand concentration corresponding to a Ki of 1 µM (Cheng-Prusoff)
T5 construct: host or cells: CHO-K1, stably transfected
T5 sequence (P11229 1-460): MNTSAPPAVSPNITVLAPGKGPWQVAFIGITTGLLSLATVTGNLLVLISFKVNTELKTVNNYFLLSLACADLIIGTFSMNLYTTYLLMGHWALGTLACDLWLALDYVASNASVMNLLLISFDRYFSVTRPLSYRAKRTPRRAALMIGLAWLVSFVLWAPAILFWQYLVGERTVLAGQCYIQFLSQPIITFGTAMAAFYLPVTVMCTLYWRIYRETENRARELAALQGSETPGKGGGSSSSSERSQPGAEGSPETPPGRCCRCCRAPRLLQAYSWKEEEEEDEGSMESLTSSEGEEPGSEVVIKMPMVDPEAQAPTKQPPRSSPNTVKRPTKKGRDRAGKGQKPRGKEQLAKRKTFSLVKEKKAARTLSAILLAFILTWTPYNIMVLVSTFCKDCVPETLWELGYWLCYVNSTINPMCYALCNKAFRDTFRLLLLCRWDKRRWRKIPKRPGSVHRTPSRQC
Experimental: as §1, §2, §3

[7] = Stability in fully supplemented RPMI1640 cell culture medium; type: in vitro ADME; conditions: fully supplemented RPMI1640, ambient temperature, after 24 h
Experimental: Since the decomposition in cell culture medium of compounds designated for biological testing could impair potential assay readouts, the stabilities of one tertiary carbamate (3) and one secondary carbamate (7) were investigated as representatives for the compound set 1–12. Gratifyingly, the rate of decomposition in fully supplemented RPMI1640 cell culture medium at ambient temperature has been fairly slow, with > 95% of both compounds remaining intact after 24 h (Supplementary Materials, Figure S3). Such stability is adequate with the requirements for carbon-11 labelled PET tracers of around 2–3 half-lives.
The stabilities of 3 and 7 were measured using the HPLC gradient method as described for the purity determination. 4 µL of a test compound’s stock solution in DMSO was diluted with fully supplemented RPMI1640 cell culture medium (10% FBS, 1% L-glutamine, without antibiotics). The stability was measured at ambient temperature and the column oven was set to 20 °C. The samples were measured at 0, 30, 60, 120 min and 24 h.

[8] = inhibition of [3H]NMS binding, CHO-hM4 membranes, read-out: Affinity: Ki ± SD, hM4
[9] = inhibition of [3H]NMS binding, CHO-hM5 membranes, read-out: Affinity: Ki ± SD, hM5
[10] = inhibition of [3H]NMS binding, CHO-hM1 membranes, read-out: Affinity: Ki ± SD, hM1

T2 sequence (P20309 whole entry): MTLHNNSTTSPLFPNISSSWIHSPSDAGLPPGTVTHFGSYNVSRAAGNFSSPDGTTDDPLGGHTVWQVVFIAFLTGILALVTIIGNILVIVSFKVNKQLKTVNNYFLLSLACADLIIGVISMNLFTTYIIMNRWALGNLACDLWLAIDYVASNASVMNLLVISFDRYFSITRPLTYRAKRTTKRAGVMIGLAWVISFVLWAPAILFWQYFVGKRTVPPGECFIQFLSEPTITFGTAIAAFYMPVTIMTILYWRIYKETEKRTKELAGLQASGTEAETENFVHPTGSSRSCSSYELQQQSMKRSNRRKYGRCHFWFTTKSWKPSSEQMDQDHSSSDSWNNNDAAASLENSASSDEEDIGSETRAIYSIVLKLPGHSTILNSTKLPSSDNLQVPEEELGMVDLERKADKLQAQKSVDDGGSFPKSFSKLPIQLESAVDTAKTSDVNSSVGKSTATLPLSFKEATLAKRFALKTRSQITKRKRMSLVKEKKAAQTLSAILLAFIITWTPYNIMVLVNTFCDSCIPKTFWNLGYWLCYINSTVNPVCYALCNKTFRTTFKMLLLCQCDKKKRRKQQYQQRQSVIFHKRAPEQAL

| Structure (SMILES) | Ki [1, 8] [nM] | Ki [2] [nM] | Ki [3] [nM] | chromatographic logD [4] | Ki [5, 9] [nM] | Ki [6, 10] [nM] | Compound remaining intact in cell culture medium [7] [%] | Displacement ± SD of [3H]NMS binding, hM4 [1] [%] | Displacement ± SD of [3H]NMS binding, hM3 [2] [%] | Displacement ± SD of [3H]NMS binding, hM2 [3] [%] | Displacement ± SD of [3H]NMS binding, hM5 [5] [%] | Displacement ± SD of [3H]NMS binding, hM1 [6] [%] | Ki [1] [nM] | Ki [5] [nM] | Ki [6] [nM] | x-Fold selectivity for hM1 vs. hM4 [1] [fold] | x-Fold selectivity for hM1 vs. hM3 [2] [fold] | x-Fold selectivity for hM1 vs. hM2 [3] [fold] | x-Fold selectivity for hM1 vs. hM5 [5] |
| --- | --- | --- | --- | --- | --- | --- | --- | --- | --- | --- | --- | --- | --- | --- | --- | --- | --- | --- | --- |
| CN1CCCC(NC(=O)OC(c2ccc(F)cc2)c2ccc(F)cc2)C1 (stereo not shown) [Compound 7, Bis(4-fluorophenyl)methyl (1-methylpiperidin-3-yl)carbamate] | 6.2 ± 2.1 | 16.1 ± 4.5 | 32.8 ± 11.4 | 2.2 ± 0.2 | 3.7 ± 1.3 | 1.22 ± 0.06 | > 95 |  |  |  |  |  |  |  |  |  |  |  |  |
| CN1CCC(NC(=O)OC(c2ccc(F)cc2)c2ccc(F)cc2)CC1 [Compound 6, Bis(4-fluorophenyl)methyl (1-methylpiperidin-4-yl)carbamate] |  |  |  | 3.25 ± 0.04 |  |  |  | 48 ± 9 | 29 ± 5 | 10 ± 7 | 54 ± 8 | 52 ± 8 |  |  |  |  |  |  |  |
| CN1CC2CC1CN2C(=O)OC(c1ccc(F)cc1)c1ccc(F)cc1 (stereo not shown) [Compound 3, Bis(4-fluorophenyl)methyl5-methyl-2,5-diazabicyclo[2.2.1]heptane-2-carboxylate] | 115 ± 51 | 358 ± 83 | > 1000 | 2.69 ± 0.01 | 68 ± 22.1 | 33.1 ± 8.1 | > 95 |  |  |  |  |  |  |  |  |  |  |  |  |
| CN1[C@@H]2CC[C@H]1CN(C(=O)OC(c1ccc(F)cc1)c1ccc(F)cc1)C2 [Compound 4, Bis(4-fluorophenyl)methyl (1R,5S)-8-methyl-3,8-diazabicyclo[3.2.1]octane-3 carboxylate] |  | 142 ± 24.2 | 850 ± 39.8 | 3.28 ± 0.03 |  |  |  |  |  |  |  |  | 19.6 ± 5.5 | 41.8 ± 14.8 | 16.5 ± 2.8 |  |  |  |  |
| CN1CCOCC1CNC(=O)OC(c1ccc(F)cc1)c1ccc(F)cc1 (stereo not shown) [Compound 12, Bis(4-fluorophenyl)methyl ((4-methylmorpholin-3-yl)methyl)carbamate] |  |  |  | 2.82 ± 0.04 |  |  |  | 20 ± 8 | 25 ± 9 | 8 ± 5 | 43 ± 11 | 39 ± 5 |  |  |  |  |  |  |  |
| CN1CCCN(C(=O)OC(c2ccc(F)cc2)c2ccc(F)cc2)CC1 [Compound 2, Bis(4-fluorophenyl)methyl 4-methyl-1,4-diazepane-1-carboxylate] | 14.4 ± 5.5 | 28.4 ± 10.7 | 227 ± 85.9 | 3.2 ± 0.02 | 4.8 ± 1.6 | 1.2 ± 0.4 |  |  |  |  |  |  |  |  |  |  |  |  |  |
| CN1CCN(C(=O)OC(c2ccc(F)cc2)c2ccc(F)cc2)CC1 [Compound 1, Bis(4-fluorophenyl)methyl 4-methylpiperazine-1-carboxylate] | 54.8 ± 20.5 | 226 ± 85.2 | > 1000 | 3.16 ± 0.01 | 50.6 ± 3.9 | 15.2 ± 3.6 |  |  |  |  |  |  |  |  |  |  |  |  |  |
| CN1CCC(CNC(=O)OC(c2ccc(F)cc2)c2ccc(F)cc2)C1 (stereo not shown) [Compound 10, Bis(4-fluorophenyl)methyl ((1-methylpyrrolidin-3-yl)methyl)carbamate] | 238 ± 104 | 277 ± 45.4 | > 1000 | 2.69 ± 0.01 | 295 ± 32.8 | 239 ± 67.9 |  |  |  |  |  |  |  |  |  | 1.0 | 1.2 | >4 | 1.2 fold |
| CN1CC2(CCN(C(=O)OC(c3ccc(F)cc3)c3ccc(F)cc3)C2)C1 [Compound 5, Bis(4-fluorophenyl)methyl 2-methyl-2,6-diazaspiro[3.4]octane-6-carboxylate] | 150 ± 52.9 | 165 ± 37.5 | > 1000 | 2.69 ± 0.01 | 231 ± 25.7 | 24.9 ± 6.2 |  |  |  |  |  |  |  |  |  | 6.0 | 6.6 | >40 | 9 fold and 9.3 fold |
| CN1CCCC1CCNC(=O)OC(c1ccc(F)cc1)c1ccc(F)cc1 (stereo not shown) [Compound 11, Bis(4-fluorophenyl)methyl (2-(1-methylpyrrolidin-2-yl)ethyl)carbamate] |  |  |  | 2.5 ± 0.3 |  |  |  | 54 ± 13 | 62 ± 3 | 37 ± 15 | 59 ± 17 | 53 ± 8 |  |  |  |  |  |  |  |
